Experimental data: PubChem BioAssay (NCI)
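Test compounds were applied to cells in 96-well plates for 48 hours at 5 doses. At the GI50, growth is halved. TGI marks complete inhibition of growth.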

Assays:
Assay in all cases: DTP human tumour cell line panel, 48 h; in the data active = GI50 below about 0.43 µM; inactive = the rest
[1] = test system: OVCAR-3 ovarian
[2] = test system: TK-10 renal
[3] = test system: A549 NSCLC
[4] = test system: HOP-92 NSCLC
[5] = test system: LXFL 529 NSCLC
[6] = test system: HCT-15 colon
[7] = test system: 786-0 renal
[8] = test system: NCI-H522 lung
[9] = test system: HCC-2998 colon
[10] = test system: MALME-3M melanoma
[11] = test system: DMS 273 small cell lung
[12] = test system: MOLT-4 leukemia
[13] = test system: NCI-H23 lung
[14] = test system: K-562 leukemia
[15] = test system: COLO 205 colon
[16] = test system: SW-620 colon
[17] = test system: RPMI-8226 leukemia
[18] = test system: NCI-H460 lung
[19] = test system: HT29 colon
[20] = test system: EKVX NSCLC
[21] = test system: OVCAR-4 ovarian
[22] = test system: UO-31 renal
[23] = test system: M19-MEL melanoma
[24] = test system: UACC-257 melanoma
[25] = test system: HCT-116 colon
[26] = test system: A498 renal
[27] = test system: SK-MEL-5 melanoma
[28] = test system: HOP-18 NSCLC
[29] = test system: OVCAR-5 ovarian
[30] = test system: U251 CNS
[31] = test system: SN12C renal
[32] = test system: SNB-75 CNS
[33] = test system: SNB-78 CNS
[34] = test system: SF-295 CNS
[35] = test system: KM12 colon
[36] = test system: KM20L2 colon
[37] = test system: HOP-62 NSCLC
[38] = test system: SF-268 CNS
[39] = test system: IGROV1 ovarian
[40] = test system: SK-MEL-2 melanoma
[41] = test system: SF-539 CNS
[42] = test system: SK-OV-3 ovarian
[43] = test system: NCI-H226 lung
[44] = test system: SK-MEL-28 melanoma
[45] = test system: M14 melanoma
[46] = test system: OVCAR-8 ovarian
[47] = test system: LOX IMVI melanoma
[48] = test system: ACHN renal
[49] = test system: UACC-62 melanoma
[50] = test system: HL-60(TB) leukemia
[51] = test system: CCRF-CEM leukemia
[52] = test system: DLD-1 colon
[53] = test system: CAKI-1 renal
[54] = test system: RXF 393 renal
[55] = test system: SNB-19 CNS
[56] = test system: SR leukemia
[57] = test system: XF 498 CNS
[58] = test system: DMS 114 small cell lung

NC1CCCCC1N.O=S(=O)([O-])CCCN1CCOCC1.O=S(=O)([O-])CCCN1CCOCC1.[Pt+4]
> 100 µM: TGI [1] | TGI [2] | TGI [3] | TGI [4] | TGI [5] | TGI [7] | TGI [9] | TGI [11] | TGI [18] | TGI [19] | TGI [20] | TGI [21] | TGI [22] | TGI [23] | TGI [24] | TGI [25] | TGI [26] | TGI [29] | TGI [30] | TGI [31] | TGI [32] | TGI [33] | TGI [34] | TGI [35] | TGI [36] | TGI [37] | TGI [38] | TGI [39] | TGI [41] | TGI [42] | TGI [43] | TGI [45] | TGI [46] | TGI [48] | TGI [52] | TGI [54] | TGI [55]
> 92.2 µM: TGI [13]
> 85.8 µM: TGI [53]
19.7 µM: TGI [50]
14.1 µM: TGI [12]
> 59.2 µM: TGI [47]
inactive: GI50 [1] 19.3 µM | GI50 [2] > 100 µM | GI50 [3] 4.72 µM | GI50 [4] 32.4 µM | GI50 [5] 27.4 µM | GI50 [6] 8.4 µM | GI50 [7] 5.7 µM | GI50 [8] 4.64 µM | GI50 [9] 36.3 µM | GI50 [10] 5.23 µM | GI50 [11] 4.87 µM | GI50 [12] 2.33 µM | GI50 [13] 18.2 µM | GI50 [14] 7.29 µM | GI50 [15] 10.7 µM | GI50 [16] 1.32 µM | GI50 [17] 1.05 µM | GI50 [18] 3.54 µM | GI50 [19] 12.8 µM | GI50 [20] > 100 µM | GI50 [21] > 29.7 µM | GI50 [22] 19.3 µM | GI50 [23] 4.52 µM | GI50 [24] 54.6 µM | GI50 [25] 4.2 µM | GI50 [26] 49 µM | GI50 [27] 9.83 µM | GI50 [28] 16 µM | GI50 [29] 26 µM | GI50 [30] 13.7 µM | GI50 [31] 10.7 µM | GI50 [32] > 100 µM | GI50 [33] > 100 µM | GI50 [34] 15.5 µM | GI50 [35] 35.1 µM | GI50 [36] 5.48 µM | GI50 [37] > 100 µM | GI50 [38] 9.92 µM | GI50 [39] 18.1 µM | GI50 [40] 13.3 µM | GI50 [41] 27.5 µM | GI50 [42] > 100 µM | GI50 [43] 22.5 µM | GI50 [44] 5.32 µM | GI50 [45] 14.4 µM | GI50 [46] 10.6 µM | GI50 [47] 16.2 µM | GI50 [48] 8.17 µM | GI50 [49] 11.8 µM | GI50 [50] 4.81 µM | GI50 [51] 5.16 µM | GI50 [52] 28.3 µM | GI50 [53] 5.01 µM | GI50 [54] > 49.4 µM | GI50 [55] 25.7 µM
30.5 µM: TGI [14]
> 56.6 µM: TGI [6]
17.1 µM: TGI [16]
20.6 µM: TGI [8]
42.8 µM: TGI [15]
> 83.1 µM: TGI [49]
22.5 µM: TGI [10]
58.7 µM: TGI [51]
> 51.4 µM: TGI [17]
22.2 µM: TGI [27]
> 89.2 µM: TGI [28]
44.5 µM: TGI [40]
48.3 µM: TGI [44]

COC(=O)C12C(=O)O[C@H](C)C1(O)C(C)C(=O)N2C (some centres undefined)
> 100 µM: TGI [1] | TGI [2] | TGI [6] | TGI [7] | TGI [56] | TGI [9] | TGI [10] | TGI [12] | TGI [13] | TGI [14] | TGI [15] | TGI [17] | TGI [19] | TGI [20] | TGI [21] | TGI [22] | TGI [23] | TGI [25] | TGI [27] | TGI [28] | TGI [29] | TGI [30] | TGI [33] | TGI [34] | TGI [35] | TGI [37] | TGI [58] | TGI [39] | TGI [40] | TGI [41] | TGI [42] | TGI [44] | TGI [45] | TGI [46] | TGI [49] | TGI [52] | TGI [53] | TGI [54] | TGI [55]
86.2 µM: TGI [57]

CCCN1CN(C(C(=O)N[C@@H]2C(=O)N3C(C(=O)O)=C(C)CSC23)c2ccc(O)cc2)CSC1=S (some centres undefined)
> 100 µM: TGI [1] | TGI [2] | TGI [3] | TGI [4] | TGI [5] | TGI [6] | TGI [7] | TGI [8] | TGI [10] | TGI [11] | TGI [12] | TGI [13] | TGI [14] | TGI [15] | TGI [17] | TGI [18] | TGI [19] | TGI [57] | TGI [20] | TGI [21] | TGI [22] | TGI [23] | TGI [24] | TGI [25] | TGI [26] | TGI [27] | TGI [28] | TGI [29] | TGI [30] | TGI [31] | TGI [32] | TGI [33] | TGI [34] | TGI [35] | TGI [36] | TGI [37] | TGI [58] | TGI [38] | TGI [39] | TGI [40] | TGI [41] | TGI [42] | TGI [44] | TGI [45] | TGI [46] | TGI [47] | TGI [48] | TGI [49] | TGI [50] | TGI [51] | TGI [52] | TGI [53] | TGI [55]
30.8 µM: TGI [16]
